Reference: PubChem BioAssay (NCI)
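Tested at 5 concentrations; 48 h exposure; 96-well plates; endpoints linearly interpolated, else capped at highest concentration. TGI is the concentration that stops growth completely.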

Legend:
Assay in all cases: DTP human tumour cell line panel, 48 h
MCF7 breast = tested on: MCF7 breast
A498 renal = tested on: A498 renal
OVCAR-5 ovarian = tested on: OVCAR-5 ovarian
HCT-116 colon = tested on: HCT-116 colon
HOP-62 NSCLC = tested on: HOP-62 NSCLC
EKVX NSCLC = tested on: EKVX NSCLC
MOLT-4 leukemia = tested on: MOLT-4 leukemia
HT29 colon = tested on: HT29 colon
DU-145 prostate = tested on: DU-145 prostate
M14 melanoma = tested on: M14 melanoma
SNB-19 CNS = tested on: SNB-19 CNS
MALME-3M melanoma = tested on: MALME-3M melanoma
COLO 205 colon = tested on: COLO 205 colon
SK-MEL-2 melanoma = tested on: SK-MEL-2 melanoma
SK-OV-3 ovarian = tested on: SK-OV-3 ovarian
OVCAR-8 ovarian = tested on: OVCAR-8 ovarian
SNB-75 CNS = tested on: SNB-75 CNS
K-562 leukemia = tested on: K-562 leukemia
SN12C renal = tested on: SN12C renal
SF-268 CNS = tested on: SF-268 CNS
HOP-92 NSCLC = tested on: HOP-92 NSCLC
IGROV1 ovarian = tested on: IGROV1 ovarian
MDA-MB-231 breast = tested on: MDA-MB-231 breast
NCI-H522 lung = tested on: NCI-H522 lung
NCI-H460 lung = tested on: NCI-H460 lung
TK-10 renal = tested on: TK-10 renal
UO-31 renal = tested on: UO-31 renal
PC-3 prostate = tested on: PC-3 prostate
T-47D breast = tested on: T-47D breast
NCI-H23 lung = tested on: NCI-H23 lung
OVCAR-3 ovarian = tested on: OVCAR-3 ovarian
MDA-MB-435 = tested on: MDA-MB-435
786-0 renal = tested on: 786-0 renal
SF-295 CNS = tested on: SF-295 CNS
CCRF-CEM leukemia = tested on: CCRF-CEM leukemia
HCC-2998 colon = tested on: HCC-2998 colon
KM12 colon = tested on: KM12 colon
NCI-H226 lung = tested on: NCI-H226 lung
LOX IMVI melanoma = tested on: LOX IMVI melanoma
UACC-62 melanoma = tested on: UACC-62 melanoma
SW-620 colon = tested on: SW-620 colon
RXF 393 renal = tested on: RXF 393 renal
ACHN renal = tested on: ACHN renal
A549 NSCLC = tested on: A549 NSCLC
U251 CNS = tested on: U251 CNS
SK-MEL-5 melanoma = tested on: SK-MEL-5 melanoma
CAKI-1 renal = tested on: CAKI-1 renal
OVCAR-4 ovarian = tested on: OVCAR-4 ovarian
SF-539 CNS = tested on: SF-539 CNS
UACC-257 melanoma = tested on: UACC-257 melanoma
BT-549 breast = tested on: BT-549 breast
NCI/ADR-RES ovarian = tested on: NCI/ADR-RES ovarian
HCT-15 colon = tested on: HCT-15 colon
SK-MEL-28 melanoma = tested on: SK-MEL-28 melanoma
MDA-N = tested on: MDA-N
HL-60(TB) leukemia = tested on: HL-60(TB) leukemia
RPMI-8226 leukemia = tested on: RPMI-8226 leukemia

Structure (SMILES): CCO[C@@]1(COCc2ccccc2)OC(=O)C[C@@H]1N1C(=O)OC[C@@H]1c1ccccc1
- TGI (MCF7 breast): > 100 µM
- TGI (A498 renal): > 100 µM
- TGI (OVCAR-5 ovarian): > 100 µM
- TGI (HCT-116 colon): > 100 µM
- TGI (HOP-62 NSCLC): 73 µM
- TGI (EKVX NSCLC): > 100 µM
- TGI (MOLT-4 leukemia): > 100 µM
- TGI (HT29 colon): > 100 µM
- TGI (DU-145 prostate): > 100 µM
- TGI (M14 melanoma): > 100 µM
- TGI (SNB-19 CNS): > 100 µM
- TGI (MALME-3M melanoma): > 100 µM
- TGI (COLO 205 colon): > 100 µM
- TGI (SK-MEL-2 melanoma): > 100 µM
- TGI (SK-OV-3 ovarian): > 100 µM
- TGI (OVCAR-8 ovarian): > 100 µM
- TGI (SNB-75 CNS): > 100 µM
- TGI (K-562 leukemia): > 100 µM
- TGI (SN12C renal): > 100 µM
- TGI (SF-268 CNS): > 100 µM
- TGI (HOP-92 NSCLC): > 100 µM
- TGI (IGROV1 ovarian): > 100 µM
- TGI (MDA-MB-231 breast): > 100 µM
- TGI (NCI-H522 lung): > 100 µM
- TGI (NCI-H460 lung): > 100 µM
- TGI (TK-10 renal): > 100 µM
- TGI (UO-31 renal): > 100 µM
- TGI (PC-3 prostate): > 100 µM
- TGI (T-47D breast): > 100 µM
- TGI (NCI-H23 lung): > 100 µM
- TGI (OVCAR-3 ovarian): > 100 µM
- TGI (MDA-MB-435): > 100 µM
- TGI (786-0 renal): > 100 µM
- TGI (SF-295 CNS): > 100 µM
- TGI (CCRF-CEM leukemia): > 100 µM
- TGI (HCC-2998 colon): > 100 µM
- TGI (KM12 colon): > 100 µM
- TGI (NCI-H226 lung): > 100 µM
- TGI (LOX IMVI melanoma): > 100 µM
- TGI (UACC-62 melanoma): > 100 µM
- TGI (SW-620 colon): > 100 µM
- TGI (RXF 393 renal): > 100 µM
- TGI (ACHN renal): > 100 µM
- TGI (A549 NSCLC): > 100 µM
- TGI (U251 CNS): > 100 µM
- TGI (SK-MEL-5 melanoma): > 100 µM
- TGI (CAKI-1 renal): 76.4 µM
- TGI (OVCAR-4 ovarian): > 100 µM
- TGI (SF-539 CNS): > 100 µM
- TGI (UACC-257 melanoma): > 100 µM
- TGI (BT-549 breast): > 100 µM
- TGI (NCI/ADR-RES ovarian): > 100 µM
- TGI (HCT-15 colon): > 100 µM
- TGI (SK-MEL-28 melanoma): > 100 µM
- TGI (MDA-N): > 100 µM
- TGI (HL-60(TB) leukemia): > 100 µM
- TGI (RPMI-8226 leukemia): > 100 µM

Structure (SMILES): COc1cc(C2c3cc4c(cc3OC(Nc3ccccc3)C2C)OCO4)cc(OC)c1O (stereo unspecified)
- TGI (MCF7 breast): 24.6 µM
- TGI (OVCAR-5 ovarian): 26.2 µM
- TGI (HCT-116 colon): 16 µM
- TGI (MOLT-4 leukemia): 11.2 µM
- TGI (HT29 colon): 18.1 µM
- TGI (DU-145 prostate): 19.6 µM
- TGI (M14 melanoma): 60.7 µM
- TGI (SNB-19 CNS): > 100 µM
- TGI (MALME-3M melanoma): 21.6 µM
- TGI (COLO 205 colon): 33.5 µM
- TGI (SK-MEL-2 melanoma): 8.59 µM
- TGI (OVCAR-8 ovarian): 23.8 µM
- TGI (SNB-75 CNS): 7.35 µM
- TGI (K-562 leukemia): 7.49 µM
- TGI (SN12C renal): 21.2 µM
- TGI (SF-268 CNS): 39.4 µM
- TGI (HOP-92 NSCLC): 48.7 µM
- TGI (IGROV1 ovarian): 48 µM
- TGI (MDA-MB-231 breast): 19.3 µM
- TGI (NCI-H522 lung): 9.16 µM
- TGI (TK-10 renal): 20.2 µM
- TGI (UO-31 renal): 25.8 µM
- TGI (PC-3 prostate): 13.4 µM
- TGI (T-47D breast): > 100 µM
- TGI (NCI-H23 lung): 33.5 µM
- TGI (OVCAR-3 ovarian): 24.6 µM
- TGI (MDA-MB-435): 1.95 µM
- TGI (786-0 renal): 21.7 µM
- TGI (SF-295 CNS): 15.6 µM
- TGI (HCC-2998 colon): 14.6 µM
- TGI (KM12 colon): 38.7 µM
- TGI (NCI-H226 lung): 39.8 µM
- TGI (UACC-62 melanoma): 23 µM
- TGI (SW-620 colon): 16.3 µM
- TGI (RXF 393 renal): 19.7 µM
- TGI (A549 NSCLC): 19.2 µM
- TGI (U251 CNS): 14.2 µM
- TGI (SK-MEL-5 melanoma): 10.7 µM
- TGI (CAKI-1 renal): > 100 µM
- TGI (OVCAR-4 ovarian): 48.2 µM
- TGI (SF-539 CNS): 8.9 µM
- TGI (UACC-257 melanoma): 34 µM
- TGI (BT-549 breast): 26 µM
- TGI (NCI/ADR-RES ovarian): 8.02 µM
- TGI (HCT-15 colon): 17.5 µM
- TGI (SK-MEL-28 melanoma): 28.4 µM
- TGI (MDA-N): 3.01 µM
- TGI (HL-60(TB) leukemia): 4.34 µM
- TGI (RPMI-8226 leukemia): 9.86 µM
